According to patent US10351586B2, “Cytidine derivative dimers and applications thereof” (CHANGZHOU FANGYUAN PHARMACEUTICAL CO., LTD, priority 2014, dated 2019):
Marks after values point to notes of the source that are not given here.

Columns and labels:
[1] = tested on: HCT-116 human colon cancer xenografts; assay: Tumor growth inhibition of HCT-116 human colon cancer xenografts in nude mice; assay type: in vivo, Balb/c nude mice; details: for Relative tumor proliferation rate (T/C %) / Relative tumor volume (RTV) / Tumor growth inhibition rate (TGI %) / Tumor volume of HCT-116 human colon cancer xenografts: single IP injection (QD×1), D1 and D2 400 mg/kg, D3 350 mg/kg, D4 300 mg/kg; for Tumor volume of HCT-116 human colon cancer xenografts: Mean±SEM
Method: 2. Preparation of the test substance was performed by dissolving the test substance using the following solvents:
3. Animal experiments were performed. […] Animals were numbered using their tail number.
4.1 Tumor cells were human HCT-116 colon cancer cells purchased from the Institute of Cell Biology, Chinese Academy of Sciences (Beijing, China). F-12 medium (containing 10% FBS) was used to culture cells in a carbon dioxide incubator at about 37° C., saturated humidity, under 5% CO2 and 95% air. Before inoculation, cells in logarithmic growth phase were collected. After digested by 0.25% trypsin, the cells were washed with PBS once. The cells were resuspended with serum-free medium and counted. Serum-free medium were used for cell resuspension, until the cell concentration was adjusted to about 3×10^7 cell/mL.
4.2 Animal inoculation and grouping were performed.
The diameters (D) of the tumor nodules were measured three times a week with a circle sizer ruler. In addition, the following formula was applied to calculate the volume of the tumor nodules (V): V=[…](D/2)^3 generally for a spherical shape. Evaluation indexes of antitumor activity were tumor growth inhibition rate TGI (%) and relative tumor proliferation rate T/C (%).
The calculation formula of TGI was: TGI (%)=(Vcontrol−VTreatment)/Vcontrol)×100%. The relative tumor volume (RTV) was calculated by: RTV=Vt/V0, where V0 is the tumor volume at the time of group administration, and Vt is the tumor volume at the time of measurement.
The mice were weighed 3 times every week.
4.5 Data and statistical analysis were provided.

[2] = Body weight / toxicity of a single intraperitoneal injection in HCT-116 colon tumor-bearing nude mice; details: for Average rate of weight change of the animals / Average weight of the animals: single IP injection (QD×1), D1 and D2 400 mg/kg, D3 350 mg/kg, D4 300 mg/kg; for Average weight of the animals: Mean±SEM
Method: Corresponding test substance was weighed and put into a 5 mL glass tube. The test substance was dissolved in ethanol under the stirring by a 5 mm magnetic stirrer. After a complete dissolution, Cremophor EL was added with continuous stirring. Immediately prior to the user of the test substance, the labeled amount of physiological saline was added and stirred.
Animal experiments were performed. The animals were female Balb/c nude mice at specific pathogen free (SPF) level and were supplied from Shanghai Sippr/BK Lab Animal Ltd. (Shanghai, China). […] These animals were at the age of about 7 weeks to about 9 weeks at the beginning of the experiments and had the weight of about 18 grams to about 22 grams at the beginning of the experiment. The animals had acclimatization duration of about 5 days to about 7 days. Animals were numbered using their tail number. The animal room was maintained at about 23±2° C., 40%-70% humidity, with alternating light and dark every 12 hours.
4.2 Animal inoculation and grouping were performed. Under aseptic conditions, each nude mice was injected with 0.1 mL cell suspension into the right hind leg subcutaneously (3×10^6 cell/mouse). When the size of the tumor grew to have a volume of about 60-150 mm^3, nude mice with a similar tumor size and a desirable shape (e.g., with substantially same shape such as a substantially spherical shape, without having irregular shapes or multiple tumors grouped together) were selected and grouped. In the experiment, there were six mice in each group.
The mice in control group were injected with a mixed solution including ethanol, Cremophor EL and normal saline at a ratio of 5:5:90.
4.4 Clinical symptoms were provided. All clinical symptoms of each animal were recorded at the beginning of the experiments and during the experiments. The observation was performed at the same time every day.
After administration of the test substance, when the weight reduction was >20%, when the animal was dying, or when the tumor volume exceeds about 2800 mm^3, the animal were euthanized by applying CO2. The tumor was separated and weighed, an autopsy was performed, and visual inspection was conducted and recorded on whether there were pathological changes in the organs.

[3] = D1 400 mg/kg Day 7, D2 400 mg/kg Day 9, D3 350 mg/kg Day 11, D4 300 mg/kg Day 11, single IP

CCCCOC(=O)Nc1ccn(C2OC(COC(=O)CCCC(=O)OC[C@H]3O[C@@H](n4ccc(NC(=O)OCCCC)nc4=O)C(F)(F)[C@@H]3OC(=O)OCCCC)C(OC(=O)OCCCC)C2(F)F)c(=O)n1 (stereo in doubt) [Compound D1, 1,5-di-[4-N-(n-butyloxycarbonyl)-3′-O-(n-butoxycarbonyl)-2′-deoxy-2′,2′-difluoro-cytidine]glutarate]
Relative tumor proliferation rate, minimum [1, 3]: 28.36% | Tumor inhibition rate, maximum [1, 3]: 91.49% | Relative tumor proliferation rate (T/C %) ([1]; Day 0): 0.00% | Relative tumor volume (RTV) ([1]; Day 0): 1.00 | Tumor growth inhibition rate (TGI %) ([1]; Day 0): 0.00% | Tumor volume of HCT-116 human colon cancer xenografts ([1]; Day 0): 39.36 ± 6.16** mm^3 | Relative tumor proliferation rate (T/C %) ([1]; Day 1): 80.13% | Relative tumor volume (RTV) ([1]; Day 1): 1.35 ± 0.24 | Tumor growth inhibition rate (TGI %) ([1]; Day 1): 67.76% | Tumor volume of HCT-116 human colon cancer xenografts ([1]; Day 1): 58.20 ± 17.45** mm^3 | Relative tumor proliferation rate (T/C %) ([1]; Day 2): 65.15% | Relative tumor volume (RTV) ([1]; Day 2): 1.35 ± 0.24 | Tumor growth inhibition rate (TGI %) ([1]; Day 2): 73.77% | Tumor volume of HCT-116 human colon cancer xenografts ([1]; Day 2): 58.20 ± 17.45** mm^3 | Relative tumor proliferation rate (T/C %) ([1]; Day 4): 32.20% | Relative tumor volume (RTV) ([1]; Day 4): 0.89 ± 0.12 | Tumor growth inhibition rate (TGI %) ([1]; Day 4): 87.46% | Tumor volume of HCT-116 human colon cancer xenografts ([1]; Day 4): 37.24 ± 9.27** mm^3 | Relative tumor proliferation rate (T/C %) ([1]; Day 7): 28.36% | Relative tumor volume (RTV) ([1]; Day 7): 1.16 ± 0.79 | Tumor growth inhibition rate (TGI %) ([1]; Day 7): 91.49% | Tumor volume of HCT-116 human colon cancer xenografts ([1]; Day 7): 36.82 ± 28.63** mm^3 | Relative tumor proliferation rate (T/C %) ([1]; Day 9): 28.77% | Relative tumor volume (RTV) ([1]; Day 9): 1.61 ± 0.98 | Tumor growth inhibition rate (TGI %) ([1]; Day 9): 91.42% | Tumor volume of HCT-116 human colon cancer xenografts ([1]; Day 9): 50.63 ± 36.49** mm^3 | Relative tumor proliferation rate (T/C %) ([1]; Day 11): 34.47% | Relative tumor volume (RTV) ([1]; Day 11): 3.18 ± 2.18 | Tumor growth inhibition rate (TGI %) ([1]; Day 11): 89.65% | Tumor volume of HCT-116 human colon cancer xenografts ([1]; Day 11): 101.02 ± 78.57** mm^3 | Relative tumor proliferation rate (T/C %) ([1]; Day 14): 64.15% | Relative tumor volume (RTV) ([1]; Day 14): 8.88 ± 6.75 | Tumor growth inhibition rate (TGI %) ([1]; Day 14): 80.16% | Tumor volume of HCT-116 human colon cancer xenografts ([1]; Day 14): 285.66 ± 237.94* mm^3 | Relative tumor proliferation rate (T/C %) ([1]; Day 16): 89.47% | Relative tumor volume (RTV) ([1]; Day 16): 15.44 ± 11.56 | Tumor growth inhibition rate (TGI %) ([1]; Day 16): 72.62% | Tumor volume of HCT-116 human colon cancer xenografts ([1]; Day 16): 495.95 ± 408.8** mm^3 | Relative tumor proliferation rate (T/C %) ([1]; Day 18): 106.69% | Relative tumor volume (RTV) ([1]; Day 18): 20.37 ± 13.96 | Tumor growth inhibition rate (TGI %) ([1]; Day 18): 67.62% | Tumor volume of HCT-116 human colon cancer xenografts ([1]; Day 18): 647.07 ± 503.28** mm^3 | Relative tumor proliferation rate (T/C %) ([1]; Day 21): 138.14% | Relative tumor volume (RTV) ([1]; Day 21): 32.34 ± 20.40 | Tumor growth inhibition rate (TGI %) ([1]; Day 21): 58.38% | Tumor volume of HCT-116 human colon cancer xenografts ([1]; Day 21): 1017.61 ± 749.53 mm^3 | Relative tumor proliferation rate (T/C %) ([1]; Day 23): 163.55% | Relative tumor volume (RTV) ([1]; Day 23): 32.34 ± 20.40 | Tumor growth inhibition rate (TGI %) ([1]; Day 23): 56.91% | Tumor volume of HCT-116 human colon cancer xenografts ([1]; Day 23): 1017.61 ± 749.53 mm^3 | Relative tumor proliferation rate (T/C %) ([1]; Day 25): 155.09% | Relative tumor volume (RTV) ([1]; Day 25): 33.53 ± 19.21 | Tumor growth inhibition rate (TGI %) ([1]; Day 25): 59.56% | Tumor volume of HCT-116 human colon cancer xenografts ([1]; Day 25): 1044.35 ± 722.80 mm^3 | Relative tumor proliferation rate (T/C %) ([1]; Day 28): 198.76% | Relative tumor volume (RTV) ([1]; Day 28): 42 ± 22 | Tumor growth inhibition rate (TGI %) ([1]; Day 28): 51.78% | Tumor volume of HCT-116 human colon cancer xenografts ([1]; Day 28): 1296.79 ± 847.87 mm^3 | Relative tumor proliferation rate (T/C %) ([1]; Day 30): 209.10% | Relative tumor volume (RTV) ([1]; Day 30): 51.88 ± 24.88 | Tumor growth inhibition rate (TGI %) ([1]; Day 30): 43.36% | Tumor volume of HCT-116 human colon cancer xenografts ([1]; Day 30): 1589.29 ± 983.15 mm^3 | Body weight after drug administration (in words) ([2]; D1 400 mg/kg, single IP, Day 4): significantly decreased | Average rate of weight change of the animals ([2]; Day 0): 0.00% | Average weight of the animals ([2]; Day 0): 19.98 ± 0.49 g | Average rate of weight change of the animals ([2]; Day 1): −2.55 ± 0.77% | Average weight of the animals ([2]; Day 1): 19.48 ± 0.58 g | Average rate of weight change of the animals ([2]; Day 2): −12.18 ± 2.63 % | Average weight of the animals ([2]; Day 2): 17.45 ± 0.81 g | Average rate of weight change of the animals ([2]; Day 4): −18.58 ± 4.66 % | Average weight of the animals ([2]; Day 4): 16.15 ± 1.08 g | Average rate of weight change of the animals ([2]; Day 7): −4.23 ± 3.77% | Average weight of the animals ([2]; Day 7): 19.80 ± 1.40 g | Average rate of weight change of the animals ([2]; Day 9): 0.42 ± 1.92% | Average weight of the animals ([2]; Day 9): 20.75 ± 1.05 g | Average rate of weight change of the animals ([2]; Day 11): 2.77 ± 4.27% | Average weight of the animals ([2]; Day 11): 21.25 ± 1.55 g | Average rate of weight change of the animals ([2]; Day 14): 3.29 ± 3.29% | Average weight of the animals ([2]; Day 14): 21.35 ± 1.35 g | Average rate of weight change of the animals ([2]; Day 16): 5.24 ± 2.74% | Average weight of the animals ([2]; Day 16): 21.75 ± 1.25 g | Average rate of weight change of the animals ([2]; Day 18): 12.70 ± 4.20 % | Average weight of the animals ([2]; Day 18): 23.30 ± 1.60 g | Average rate of weight change of the animals ([2]; Day 21): 7.90 ± 2.90 % | Average weight of the animals ([2]; Day 21): 22.30 ± 1.30 g | Average rate of weight change of the animals ([2]; Day 23): 9.32 ± 3.82 % | Average weight of the animals ([2]; Day 23): 22.60 ± 1.50 g | Average rate of weight change of the animals ([2]; Day 25): 12.20 ± 4.70% | Average weight of the animals ([2]; Day 25): 23.20 ± 1.70 g | Average rate of weight change of the animals ([2]; Day 28): 15.14 ± 3.64% | Average weight of the animals ([2]; Day 28): 23.80 ± 1.50 g | Average rate of weight change of the animals ([2]; Day 30): 14.22 ± 2.22% | Average weight of the animals ([2]; Day 30): 23.60 ± 1.20 g
